Paper PMC9969401, “Discovery of 2-(3-Benzamidopropanamido)thiazole-5-carboxylate Inhibitors of the Kinesin HSET (KIFC1) and the Development of Cellular Target Engagement Probes” (Journal of Medicinal Chemistry, 2023)
pIC50: −log10 of the molar value.

What was measured:
[1] = biological target: T1, GST-tagged Eg5 motor domain (Homo sapiens, UniProt P52732); assay: ADP-Glo Eg5 assay (4.8 μM ATP); format: biochemical; conditions: preformed microtubules, 4.8 μM ATP (Table 4)
T1 construct: 4 nM GST-tagged Eg5 motor domain protein (Cytoskeleton, EG01); purchased Cytoskeleton EG01
T1 sequence (P52732 18-359 limits assumed): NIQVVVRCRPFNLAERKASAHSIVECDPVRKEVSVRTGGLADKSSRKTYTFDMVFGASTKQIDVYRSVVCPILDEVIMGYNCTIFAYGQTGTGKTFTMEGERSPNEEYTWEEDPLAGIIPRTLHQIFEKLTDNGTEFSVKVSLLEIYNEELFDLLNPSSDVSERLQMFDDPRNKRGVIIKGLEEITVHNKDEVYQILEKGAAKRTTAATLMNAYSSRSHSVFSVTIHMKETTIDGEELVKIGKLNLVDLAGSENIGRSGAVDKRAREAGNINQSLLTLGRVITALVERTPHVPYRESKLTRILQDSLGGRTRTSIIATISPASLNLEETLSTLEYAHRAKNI
Procedure, shortened: (§1)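 His-tagged full-length HSET (5 nM) or GST-Eg5 motor domain (4 nM), with 70 μg/mL paclitaxel-stabilised microtubules in HEPES pH 6.8 buffer, was preincubated with compound for 10 min. ATP was then added (3 or 500 μM for HSET, 4.8 μM for Eg5), followed by 80 min at 25 °C and ADP-Glo luminescence. IC50 was fitted with a four-parameter logistic.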

[2] = biological target: T2, recombinant full-length HSET (Homo sapiens, UniProt Q9BW19); assay: ADP-Glo HSET assay (3 μM ATP), microtubule-stimulated ATPase; format: biochemical; conditions: for pIC50: preformed microtubules, 3 μM ATP, read-out: HSET ADP-Glo IC50
T2 construct: 5 nM full-length human N-terminal His-tag HSET; His-tag (N)
T2 sequence (Q9BW19 1-673): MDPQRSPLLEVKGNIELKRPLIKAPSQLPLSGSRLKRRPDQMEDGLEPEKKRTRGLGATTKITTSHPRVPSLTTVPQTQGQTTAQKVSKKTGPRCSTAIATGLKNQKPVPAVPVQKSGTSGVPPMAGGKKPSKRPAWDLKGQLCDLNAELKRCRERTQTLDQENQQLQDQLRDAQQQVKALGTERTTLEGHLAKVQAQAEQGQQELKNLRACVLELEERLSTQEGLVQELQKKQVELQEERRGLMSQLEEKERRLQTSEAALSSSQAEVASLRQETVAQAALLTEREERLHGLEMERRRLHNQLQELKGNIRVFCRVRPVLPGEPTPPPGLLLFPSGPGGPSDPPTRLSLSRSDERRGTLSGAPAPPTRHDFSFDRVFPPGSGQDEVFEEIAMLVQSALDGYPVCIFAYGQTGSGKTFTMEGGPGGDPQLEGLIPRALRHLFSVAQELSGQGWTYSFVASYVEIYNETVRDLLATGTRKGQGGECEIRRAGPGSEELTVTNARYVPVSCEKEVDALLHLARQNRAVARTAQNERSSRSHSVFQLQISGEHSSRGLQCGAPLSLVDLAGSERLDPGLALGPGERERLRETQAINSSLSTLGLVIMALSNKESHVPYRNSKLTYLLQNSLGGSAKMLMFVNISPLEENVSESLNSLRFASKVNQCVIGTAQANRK
Procedure, shortened: as §1

[3] = biological target: T2, recombinant full-length HSET; assay: ADP-Glo HSET assay (500 μM ATP); format: biochemical; conditions: high ATP concentration of 500 μM; single determination or mean of two
Protocol: The HSET or Eg5 ATPase activity was measured using the ADP-Glo Kinase Assay kit (Promega, V9102). The assays were run using final concentrations of 5 nM full-length human N-terminal His-tag HSET or 4 nM GST-tagged Eg5 motor domain protein (Cytoskeleton, EG01) and an assay buffer containing 20 mM HEPES pH 6.8, 10 mM MgCl2, 0.25 mM EGTA, 0.4 mM Triton X-100, and 1 mM DTT. Preformed microtubules (Universal Biologicals Cambridge, bovine MT001-XL, or porcine MT002-XL), which were reconstituted in 15 mM PIPES pH 7, 1 mM MgCl2, and 20 μM paclitaxel, were present at a final assay concentration of 70 μg/mL. A reaction volume of 5 μL was used in Proxiplate 384 plus white assay plates (PerkinElmer, 6008280). To measure compound inhibition, 100 nL of compound dissolved in DMSO or DMSO alone was preincubated with the HSET and microtubules for 10 min before 3 μM Ultra-Pure ATP was added to start the ATPase reaction for the 3 μM ATP HSET assay. For the 500 μM ATP HSET assay, the addition of 500 μM Ultra-Pure ATP was used. For the Eg5 ATPase assay, 4.8 μM Ultra-Pure ATP was used. All reactions were incubated at 25 °C for 80 min and then stopped by the addition of 5 μL of the ADP-Glo reagent. 10 μL of Kinase Detection Reagent was then added after a further 45 min of incubation. The luminescence was read after 45 min on a PheraStar FSX plate reader (BMG Labtech). The data processing was performed using Dotmatics Studies software package. Percentage inhibition was determined based on normalization to high controls (0% inhibition, all reagents with 100 nL of DMSO alone) and low controls (100% inhibition […], without HSET). The IC50 values for each compound were determined using a four-parameter logistic curve fit of % inhibition versus concentration.

[4] = Kinetic aqueous solubility (KSol), HPLC-UV; format: physicochemical; conditions: PBS buffer pH 7.4, 100 μM solution with 1% DMSO, HPLC with UV detection
[5] = mean (±SD) n ≥ 3 (37 n = 2, 38 single determination) (Table 3)

| pIC50 [1] | pIC50 [2, 5] | pIC50 ([2]; mean (±SD) n ≥ 3 (Table 4)) | pIC50 [3] | KSol data [4] [µM] | fold decrease in HSET activity ([2]; compared to its parent compound (35)) [fold] | LE ([2]; LE = −1.4Log(IC50 [M])/number of non-hydrogen atoms (Table 2)) | LLE ([2]; LLE = −Log(IC50 [M]) – cLogP (MoKa) (Table 2)) | pIC50 ([2]; mean (±SD) n ≥ 3, >200 from a single determination (Table 2)) | fold increase in HSET inhibition ([2]; propyl ester versus ethyl ester 13) | SMILES |
| --- | --- | --- | --- | --- | --- | --- | --- | --- | --- | --- |
| < 3.70 | 7.72 | 7.72 | 7.18 | >90 |  |  |  |  |  | CCCOC(=O)c1sc(NC(=O)C[C@H](CCCNC)NC(=O)c2cccc(-c3noc(C)n3)c2)nc1C [Compound 35, Propyl (S)-4-Methyl-2-(3-(3-(5-methyl-1,2,4-oxadiazol-3-yl)benzamido)-6-(methylamino)hexanamido)thiazole-5-carboxylate] |
|  | 6.66 |  |  | 1.8 | 11 |  |  |  |  | CCCOC(=O)c1sc(NC(=O)C[C@H](CCCN(C)C(=O)O[C@@H]2CC/C=C/CCC2)NC(=O)c2cccc(-c3noc(C)n3)c2)nc1C [Compound 38, Propyl 2-((S)-6-(((((S,E)-Cyclooct-4-en-1-yl)oxy)carbonyl)(methyl)amino)-3-(3-(5-methyl-1,2,4-oxadiazol-3-yl)benzamido)hexanamido)-4-methylthiazole-5-carboxylate] |
| < 3.70 |  | 7.92 | 7.29 |  |  | 0.35 | 4.8 | 7.92 | fivefold | CCCOC(=O)c1sc(NC(=O)CCNC(=O)c2cccc(-c3noc(C)n3)c2)nc1C [Compound 32, Propyl 4-Methyl-2-(3-(3-(5-methyl-1,2,4-oxadiazol-3-yl)benzamido)propanamido)thiazole-5-carboxylate] |
| < 3.70 | 7.96 | 7.96 | 7.05 | >90 |  |  |  |  |  | CCCOC(=O)c1sc(NC(=O)C[C@H](CCCN(C)C)NC(=O)c2cccc(-c3noc(C)n3)c2)nc1C [Compound 36, Propyl (S)-2-(6-(Dimethylamino)-3-(3-(5-methyl-1,2,4-oxadiazol-3-yl)benzamido)hexanamido)-4-methylthiazole-5-carboxylate] |
